Earlier results in US12369587B2, “Aqueous composition of epyrifenacil, flumioxazin and pyroxasulfone” (Valent U.S.A. LLC, priority 2020, dated 2025).

## C#CCN1C(=O)COc2cc(F)c(N3C(=O)C4=C(CCCC4)C3=O)cc21 [flumioxazin, 2-(7-fluoro-3-oxo-4-prop-2-ynyl-1,4-benzoxazin-6-yl)-4,5,6,7-tetrahydroisoindole-1,3-dione]
  water solubility: 1.79 ppm
